How the values were obtained:
[1] = Antiproliferative activity against human MM1.S cells assessed as cell viability at 50 uM incubated for 72 hrs by CellTiter-Glo assay relative to control; type: toxicity, cell-based; conditions: read-out: Activity
[2] = target: Histone deacetylase 3/Nuclear receptor corepressor 2 (HDAC3/NCoR2) (Homo sapiens, UniProt O15379); experiment: Inhibition of C-terminal His tagged human recombinant HDAC3 (1 to 428 end residues)/N-terminal GST-tagged human NcoR2 expressed in Sf9 insect cells using Z-Lys(Ac)-AMC as substrate preincubated for 60 mins followed by substrate addition and measured after 90 mins by fluorescence based microplate reader analysis
[3] = tested on: MM1.S; experiment: Induction of degradation of HDAC6 in human MM1.S cells at 0.5 uM incubated for 24 hrs by immunoblot analysis relative to control; type: cell-based
[4] = Antiproliferative activity against human MM1.S cells assessed as cell viability incubated for 72 hrs by CellTiter-Glo assay; type: toxicity, cell-based

Chain of Histone deacetylase 3/Nuclear receptor corepressor 2 (HDAC3/NCoR2) (O15379 whole entry): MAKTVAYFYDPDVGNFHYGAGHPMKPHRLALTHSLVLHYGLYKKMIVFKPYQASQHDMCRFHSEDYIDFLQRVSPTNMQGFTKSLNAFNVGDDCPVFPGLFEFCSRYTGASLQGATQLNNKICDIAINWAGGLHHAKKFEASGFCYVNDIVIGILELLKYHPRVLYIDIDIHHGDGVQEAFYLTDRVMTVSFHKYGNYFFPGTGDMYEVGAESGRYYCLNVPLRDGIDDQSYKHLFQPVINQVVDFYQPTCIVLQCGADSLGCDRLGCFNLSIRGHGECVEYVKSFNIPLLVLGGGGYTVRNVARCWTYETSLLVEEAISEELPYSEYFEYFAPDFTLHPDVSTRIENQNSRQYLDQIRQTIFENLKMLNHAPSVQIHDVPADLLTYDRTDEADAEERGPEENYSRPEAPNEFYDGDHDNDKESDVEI
Chain of Histone deacetylase 3/Nuclear receptor corepressor 2 (HDAC3/NCoR2) (Q9Y618 whole entry, further chain): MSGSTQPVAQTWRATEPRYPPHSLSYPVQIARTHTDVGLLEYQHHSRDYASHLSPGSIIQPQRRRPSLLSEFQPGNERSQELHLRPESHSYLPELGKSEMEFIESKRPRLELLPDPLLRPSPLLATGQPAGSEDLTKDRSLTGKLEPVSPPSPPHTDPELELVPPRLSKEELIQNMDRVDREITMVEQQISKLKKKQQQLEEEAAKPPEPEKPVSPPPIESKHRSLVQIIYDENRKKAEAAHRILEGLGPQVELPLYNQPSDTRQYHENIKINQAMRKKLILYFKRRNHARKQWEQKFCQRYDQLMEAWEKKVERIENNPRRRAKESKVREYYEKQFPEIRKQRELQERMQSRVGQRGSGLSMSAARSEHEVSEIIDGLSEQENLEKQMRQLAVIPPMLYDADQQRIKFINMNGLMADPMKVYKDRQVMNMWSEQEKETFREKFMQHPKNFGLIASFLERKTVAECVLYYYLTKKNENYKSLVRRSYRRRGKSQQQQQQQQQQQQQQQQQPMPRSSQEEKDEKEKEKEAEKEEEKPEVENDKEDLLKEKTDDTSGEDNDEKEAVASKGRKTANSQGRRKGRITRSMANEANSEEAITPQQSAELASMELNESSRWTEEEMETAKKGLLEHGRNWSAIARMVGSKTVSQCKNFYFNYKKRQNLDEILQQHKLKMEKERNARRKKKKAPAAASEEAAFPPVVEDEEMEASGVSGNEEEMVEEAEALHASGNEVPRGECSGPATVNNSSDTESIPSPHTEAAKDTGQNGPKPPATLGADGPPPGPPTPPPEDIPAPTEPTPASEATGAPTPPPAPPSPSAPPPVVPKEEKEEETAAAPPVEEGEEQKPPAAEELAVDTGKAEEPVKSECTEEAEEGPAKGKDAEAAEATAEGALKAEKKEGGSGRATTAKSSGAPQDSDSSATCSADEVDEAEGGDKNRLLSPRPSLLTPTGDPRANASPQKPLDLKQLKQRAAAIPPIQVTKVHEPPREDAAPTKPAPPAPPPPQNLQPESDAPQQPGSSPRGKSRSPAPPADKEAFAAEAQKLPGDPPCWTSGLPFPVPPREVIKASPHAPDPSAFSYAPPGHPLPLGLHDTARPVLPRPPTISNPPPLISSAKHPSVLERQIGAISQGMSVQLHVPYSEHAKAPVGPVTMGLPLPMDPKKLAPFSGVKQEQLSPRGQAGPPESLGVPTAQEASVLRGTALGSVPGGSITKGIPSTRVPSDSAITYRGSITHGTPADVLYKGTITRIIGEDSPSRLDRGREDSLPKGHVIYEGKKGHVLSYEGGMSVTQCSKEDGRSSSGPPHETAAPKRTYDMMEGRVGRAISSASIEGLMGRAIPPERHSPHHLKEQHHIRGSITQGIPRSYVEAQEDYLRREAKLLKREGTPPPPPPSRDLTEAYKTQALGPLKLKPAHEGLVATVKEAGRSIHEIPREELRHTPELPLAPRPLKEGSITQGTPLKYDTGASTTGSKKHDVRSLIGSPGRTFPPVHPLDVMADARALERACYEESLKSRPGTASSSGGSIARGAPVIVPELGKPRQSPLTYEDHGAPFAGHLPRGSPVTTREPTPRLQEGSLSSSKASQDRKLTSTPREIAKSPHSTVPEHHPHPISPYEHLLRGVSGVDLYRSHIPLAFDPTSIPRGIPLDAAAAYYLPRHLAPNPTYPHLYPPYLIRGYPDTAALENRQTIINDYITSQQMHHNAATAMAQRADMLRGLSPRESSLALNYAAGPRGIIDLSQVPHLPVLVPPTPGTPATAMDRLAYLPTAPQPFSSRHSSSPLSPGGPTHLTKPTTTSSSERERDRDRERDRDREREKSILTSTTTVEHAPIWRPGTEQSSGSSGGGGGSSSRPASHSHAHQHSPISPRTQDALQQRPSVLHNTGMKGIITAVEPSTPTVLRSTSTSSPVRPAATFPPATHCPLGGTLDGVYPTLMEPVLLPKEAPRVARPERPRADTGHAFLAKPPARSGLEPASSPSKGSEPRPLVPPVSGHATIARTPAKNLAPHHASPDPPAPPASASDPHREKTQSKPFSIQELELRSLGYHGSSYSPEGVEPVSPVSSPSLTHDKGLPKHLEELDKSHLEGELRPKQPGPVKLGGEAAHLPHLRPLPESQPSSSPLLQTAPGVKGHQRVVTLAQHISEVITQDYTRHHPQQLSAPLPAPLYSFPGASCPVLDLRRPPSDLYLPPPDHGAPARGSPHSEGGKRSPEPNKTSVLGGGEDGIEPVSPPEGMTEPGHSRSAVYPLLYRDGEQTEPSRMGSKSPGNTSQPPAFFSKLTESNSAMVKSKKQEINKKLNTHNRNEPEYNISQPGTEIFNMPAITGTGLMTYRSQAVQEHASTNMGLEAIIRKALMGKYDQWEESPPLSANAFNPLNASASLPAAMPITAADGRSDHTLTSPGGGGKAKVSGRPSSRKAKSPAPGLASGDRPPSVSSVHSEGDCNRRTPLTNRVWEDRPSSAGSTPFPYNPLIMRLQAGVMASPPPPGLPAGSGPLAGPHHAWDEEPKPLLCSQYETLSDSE

| SMILES | viability at 72 h, 50 µM [1] [%] | IC50 [2] [µM] | Activity [3] [%] | IC50 at 72 h [4] [µM] |
| --- | --- | --- | --- | --- |
| CCNNC(=O)c1ccc(CNC(=O)c2ccc(OCc3cn(CCCCCC(=O)N[C@H](C(=O)N4C[C@H](O)C[C@H]4C(=O)NCc4ccc(-c5scnc5C)cc4)C(C)(C)C)nn3)cc2)cc1 | > 50 | 0.417 | – | – |
| CCNNC(=O)c1ccc(CNC(=O)c2ccc(OCc3cn(CCCCCCNc4cc5c(cc4F)C(=O)N(C4CCC(=O)NC4=O)C5=O)nn3)cc2)cc1 (configuration not stated) | > 50 | 0.611 | – | – |
| O=C(CCCCCCNC(=O)c1ccc(NC(=O)CCCCCCCNC(=O)COc2cccc3c2C(=O)N(C2CCC(=O)NC2=O)C3=O)cc1)NO (configuration not stated) | > 50 | 0.164 | 94.5 | – |
| CCNNC(=O)c1ccc(CNC(=O)c2ccc(NC(=O)COCCOCC(=O)N[C@H](C(=O)N3C[C@H](O)C[C@H]3C(=O)NCc3ccc(-c4scnc4C)cc3)C(C)(C)C)cc2)cc1 | > 50 | 0.729 | – | – |
| CCNNC(=O)c1ccc(CNC(=O)c2ccc(NC(=O)COCCOCCNc3cc4c(cc3F)C(=O)N(C3CCC(=O)NC3=O)C4=O)cc2)cc1 (configuration not stated) | > 50 | 0.378 | – | – |
| CCNNC(=O)c1ccc(CNC(=O)c2ccc(NC(=O)CCCCCCC(=O)N[C@H](C(=O)N3C[C@H](O)C[C@H]3C(=O)NCc3ccc(-c4scnc4C)cc3)C(C)(C)C)cc2)cc1 | > 50 | 0.126 | – | – |
| CCNNC(=O)c1ccc(CNC(=O)c2ccc(OCc3cn(CCOCCNc4cc5c(cc4F)C(=O)N(C4CCC(=O)NC4=O)C5=O)nn3)cc2)cc1 (configuration not stated) | – | 0.332 | – | 24.9 |
| O=C(CCCCCCC(=O)Nc1ccccc1)NO [VORINOSTAT] | – | – | – | 0.8 |
| CCNNC(=O)c1ccc(CNC(=O)c2ccc(OCc3cn(CCCCCCNc4cc5c(cc4F)C(=O)N(C4CCC(=O)N(C)C4=O)C5=O)nn3)cc2)cc1 (configuration not stated) | > 50 | 0.537 | – | – |
| CCNNC(=O)c1ccc(CNC(=O)c2ccc(NC(=O)CCCCCCCNc3cc4c(cc3F)C(=O)N(C3CCC(=O)NC3=O)C4=O)cc2)cc1 (configuration not stated) | – | 0.238 | – | 18.4 |
| CCNNC(=O)c1ccc(CNC(=O)c2ccc(OCc3cn(CCOCCC(=O)N[C@H](C(=O)N4C[C@H](O)C[C@H]4C(=O)NCc4ccc(-c5scnc5C)cc4)C(C)(C)C)nn3)cc2)cc1 | > 50 | 0.244 | – | – |

Source: ChEMBL document CHEMBL6103670, “Development of Ethyl-Hydrazide-Based Selective Histone Deacetylase 6 (HDAC6) PROTACs” (ACS Med Chem Lett, 2025)
